ChEMBL document CHEMBL3991601, “The target landscape of clinical kinase drugs” (Science, 2017)
Active and inactive are the calls of the source. Cut-off read from the data, not from the text of the source, for most assays here: actives have a measured Kd and inactives only a lower limit.

Assays:
Ephrin type-B receptor 6 = biological target: T1, Ephrin type-B receptor 6 (Homo sapiens, UniProt O15197)
T1 sequence (O15197 whole entry): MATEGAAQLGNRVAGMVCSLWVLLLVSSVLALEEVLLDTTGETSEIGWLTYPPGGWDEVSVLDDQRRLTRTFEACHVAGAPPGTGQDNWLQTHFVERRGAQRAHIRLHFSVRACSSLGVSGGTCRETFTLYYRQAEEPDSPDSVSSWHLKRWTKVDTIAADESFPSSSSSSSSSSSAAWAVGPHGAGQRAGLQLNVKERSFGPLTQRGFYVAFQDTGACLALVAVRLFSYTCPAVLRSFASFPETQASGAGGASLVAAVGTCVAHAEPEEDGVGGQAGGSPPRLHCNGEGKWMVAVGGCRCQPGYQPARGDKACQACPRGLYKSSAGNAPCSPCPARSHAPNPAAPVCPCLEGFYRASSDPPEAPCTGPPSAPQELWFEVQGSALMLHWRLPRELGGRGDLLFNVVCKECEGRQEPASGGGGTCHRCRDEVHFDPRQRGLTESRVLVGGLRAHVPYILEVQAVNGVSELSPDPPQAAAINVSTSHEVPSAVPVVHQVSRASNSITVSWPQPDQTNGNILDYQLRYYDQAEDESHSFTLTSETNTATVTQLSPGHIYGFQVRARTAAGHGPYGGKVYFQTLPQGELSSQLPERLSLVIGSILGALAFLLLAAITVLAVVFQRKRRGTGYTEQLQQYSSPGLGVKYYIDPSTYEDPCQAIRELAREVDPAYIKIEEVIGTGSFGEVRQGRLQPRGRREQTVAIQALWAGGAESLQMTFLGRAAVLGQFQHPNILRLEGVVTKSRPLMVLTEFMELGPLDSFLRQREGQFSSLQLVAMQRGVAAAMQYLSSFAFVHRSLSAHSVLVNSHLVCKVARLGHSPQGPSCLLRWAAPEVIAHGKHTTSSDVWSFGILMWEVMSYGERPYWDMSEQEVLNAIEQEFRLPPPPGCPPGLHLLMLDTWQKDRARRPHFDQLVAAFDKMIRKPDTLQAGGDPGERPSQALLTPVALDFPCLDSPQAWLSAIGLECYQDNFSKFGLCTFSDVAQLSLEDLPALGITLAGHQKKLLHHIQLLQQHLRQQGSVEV

[1] = biological target: TRAF2 and NCK-interacting protein kinase (Homo sapiens, UniProt Q9UKE5)
[2] = biological target: Cyclin-dependent kinase 1 (Homo sapiens, UniProt P06493)
[3] = biological target: Mitogen-activated protein kinase 8 (Homo sapiens, UniProt P45983)
Mitogen-activated protein kinase 8, sequence (P45983 whole entry): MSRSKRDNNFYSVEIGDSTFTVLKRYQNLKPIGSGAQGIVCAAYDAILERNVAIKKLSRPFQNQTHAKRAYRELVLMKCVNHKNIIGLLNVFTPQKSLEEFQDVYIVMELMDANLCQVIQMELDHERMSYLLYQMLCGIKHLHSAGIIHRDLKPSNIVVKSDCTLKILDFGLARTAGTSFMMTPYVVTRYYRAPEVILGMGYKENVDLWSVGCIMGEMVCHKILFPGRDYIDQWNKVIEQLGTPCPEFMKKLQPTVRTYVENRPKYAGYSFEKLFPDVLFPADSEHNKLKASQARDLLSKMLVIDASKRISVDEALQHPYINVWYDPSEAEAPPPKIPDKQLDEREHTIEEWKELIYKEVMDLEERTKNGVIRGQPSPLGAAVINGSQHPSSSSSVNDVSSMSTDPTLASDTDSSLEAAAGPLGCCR

[4] = biological target: T2, Serine/threonine-protein kinase Nek2 (Homo sapiens, UniProt P51955)
T2 sequence (P51955 whole entry): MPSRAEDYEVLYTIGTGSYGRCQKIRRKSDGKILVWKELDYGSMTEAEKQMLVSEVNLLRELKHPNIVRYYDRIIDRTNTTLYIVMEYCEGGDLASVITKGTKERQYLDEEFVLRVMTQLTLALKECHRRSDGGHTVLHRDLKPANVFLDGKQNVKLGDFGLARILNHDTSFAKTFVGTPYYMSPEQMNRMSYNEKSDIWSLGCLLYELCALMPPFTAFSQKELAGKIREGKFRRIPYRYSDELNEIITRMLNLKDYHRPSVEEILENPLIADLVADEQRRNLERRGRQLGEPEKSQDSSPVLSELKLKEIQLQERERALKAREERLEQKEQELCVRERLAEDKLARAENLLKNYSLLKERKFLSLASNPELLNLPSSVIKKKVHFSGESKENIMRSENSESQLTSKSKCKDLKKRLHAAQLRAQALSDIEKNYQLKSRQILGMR

[5] = biological target: T3, Dual specificity mitogen-activated protein kinase kinase 6 (Homo sapiens, UniProt P52564)
T3 sequence (P52564 whole entry): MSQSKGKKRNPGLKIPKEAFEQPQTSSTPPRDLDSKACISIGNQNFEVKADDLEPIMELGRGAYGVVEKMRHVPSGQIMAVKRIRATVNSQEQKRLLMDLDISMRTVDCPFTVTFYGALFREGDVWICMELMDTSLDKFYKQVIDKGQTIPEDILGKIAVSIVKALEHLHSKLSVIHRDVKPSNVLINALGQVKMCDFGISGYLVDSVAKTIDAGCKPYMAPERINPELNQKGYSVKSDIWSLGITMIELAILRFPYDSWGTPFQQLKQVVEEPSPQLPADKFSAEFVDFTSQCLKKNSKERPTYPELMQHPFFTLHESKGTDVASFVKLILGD

Wee1-like protein kinase = Wee1-like protein kinase (Homo sapiens, UniProt P30291)
Wee1-like protein kinase, sequence (P30291 whole entry): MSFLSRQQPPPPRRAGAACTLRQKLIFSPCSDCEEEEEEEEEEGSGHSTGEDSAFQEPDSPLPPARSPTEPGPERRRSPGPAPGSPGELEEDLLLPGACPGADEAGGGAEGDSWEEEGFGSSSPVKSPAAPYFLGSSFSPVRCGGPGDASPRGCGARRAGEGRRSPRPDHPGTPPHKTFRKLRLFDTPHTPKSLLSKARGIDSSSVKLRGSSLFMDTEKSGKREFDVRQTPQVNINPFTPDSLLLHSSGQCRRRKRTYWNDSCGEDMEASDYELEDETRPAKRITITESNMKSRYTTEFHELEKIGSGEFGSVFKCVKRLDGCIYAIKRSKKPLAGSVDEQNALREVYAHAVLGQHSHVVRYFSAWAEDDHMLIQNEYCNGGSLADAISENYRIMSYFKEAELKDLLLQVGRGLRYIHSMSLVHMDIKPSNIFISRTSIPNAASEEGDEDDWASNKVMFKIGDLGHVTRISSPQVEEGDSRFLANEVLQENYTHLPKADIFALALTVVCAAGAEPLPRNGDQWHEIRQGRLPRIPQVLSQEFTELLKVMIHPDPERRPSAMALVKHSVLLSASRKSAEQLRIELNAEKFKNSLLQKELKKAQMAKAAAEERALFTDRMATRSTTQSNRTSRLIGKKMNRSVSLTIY

[6] = biological target: Tyrosine-protein kinase FRK (Homo sapiens, UniProt P42685)
Tyrosine-protein kinase FRK, sequence (P42685 whole entry): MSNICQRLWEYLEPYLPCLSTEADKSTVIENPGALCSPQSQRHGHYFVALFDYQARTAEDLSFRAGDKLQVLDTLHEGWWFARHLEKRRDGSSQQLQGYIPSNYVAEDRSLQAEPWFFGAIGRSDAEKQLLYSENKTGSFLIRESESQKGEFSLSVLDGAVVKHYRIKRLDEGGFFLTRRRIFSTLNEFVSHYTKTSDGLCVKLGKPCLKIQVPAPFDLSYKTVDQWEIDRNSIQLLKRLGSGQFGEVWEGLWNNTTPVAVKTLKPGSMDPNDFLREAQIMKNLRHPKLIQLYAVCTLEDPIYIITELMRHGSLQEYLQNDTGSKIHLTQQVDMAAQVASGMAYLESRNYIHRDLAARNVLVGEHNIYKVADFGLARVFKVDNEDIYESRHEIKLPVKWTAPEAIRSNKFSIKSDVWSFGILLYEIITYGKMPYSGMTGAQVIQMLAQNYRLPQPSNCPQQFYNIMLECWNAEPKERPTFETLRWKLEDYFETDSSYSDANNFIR

[7] = biological target: U5 small nuclear ribonucleoprotein 200 kDa helicase (Homo sapiens, UniProt O75643)
U5 small nuclear ribonucleoprotein 200 kDa helicase, sequence (O75643 whole entry): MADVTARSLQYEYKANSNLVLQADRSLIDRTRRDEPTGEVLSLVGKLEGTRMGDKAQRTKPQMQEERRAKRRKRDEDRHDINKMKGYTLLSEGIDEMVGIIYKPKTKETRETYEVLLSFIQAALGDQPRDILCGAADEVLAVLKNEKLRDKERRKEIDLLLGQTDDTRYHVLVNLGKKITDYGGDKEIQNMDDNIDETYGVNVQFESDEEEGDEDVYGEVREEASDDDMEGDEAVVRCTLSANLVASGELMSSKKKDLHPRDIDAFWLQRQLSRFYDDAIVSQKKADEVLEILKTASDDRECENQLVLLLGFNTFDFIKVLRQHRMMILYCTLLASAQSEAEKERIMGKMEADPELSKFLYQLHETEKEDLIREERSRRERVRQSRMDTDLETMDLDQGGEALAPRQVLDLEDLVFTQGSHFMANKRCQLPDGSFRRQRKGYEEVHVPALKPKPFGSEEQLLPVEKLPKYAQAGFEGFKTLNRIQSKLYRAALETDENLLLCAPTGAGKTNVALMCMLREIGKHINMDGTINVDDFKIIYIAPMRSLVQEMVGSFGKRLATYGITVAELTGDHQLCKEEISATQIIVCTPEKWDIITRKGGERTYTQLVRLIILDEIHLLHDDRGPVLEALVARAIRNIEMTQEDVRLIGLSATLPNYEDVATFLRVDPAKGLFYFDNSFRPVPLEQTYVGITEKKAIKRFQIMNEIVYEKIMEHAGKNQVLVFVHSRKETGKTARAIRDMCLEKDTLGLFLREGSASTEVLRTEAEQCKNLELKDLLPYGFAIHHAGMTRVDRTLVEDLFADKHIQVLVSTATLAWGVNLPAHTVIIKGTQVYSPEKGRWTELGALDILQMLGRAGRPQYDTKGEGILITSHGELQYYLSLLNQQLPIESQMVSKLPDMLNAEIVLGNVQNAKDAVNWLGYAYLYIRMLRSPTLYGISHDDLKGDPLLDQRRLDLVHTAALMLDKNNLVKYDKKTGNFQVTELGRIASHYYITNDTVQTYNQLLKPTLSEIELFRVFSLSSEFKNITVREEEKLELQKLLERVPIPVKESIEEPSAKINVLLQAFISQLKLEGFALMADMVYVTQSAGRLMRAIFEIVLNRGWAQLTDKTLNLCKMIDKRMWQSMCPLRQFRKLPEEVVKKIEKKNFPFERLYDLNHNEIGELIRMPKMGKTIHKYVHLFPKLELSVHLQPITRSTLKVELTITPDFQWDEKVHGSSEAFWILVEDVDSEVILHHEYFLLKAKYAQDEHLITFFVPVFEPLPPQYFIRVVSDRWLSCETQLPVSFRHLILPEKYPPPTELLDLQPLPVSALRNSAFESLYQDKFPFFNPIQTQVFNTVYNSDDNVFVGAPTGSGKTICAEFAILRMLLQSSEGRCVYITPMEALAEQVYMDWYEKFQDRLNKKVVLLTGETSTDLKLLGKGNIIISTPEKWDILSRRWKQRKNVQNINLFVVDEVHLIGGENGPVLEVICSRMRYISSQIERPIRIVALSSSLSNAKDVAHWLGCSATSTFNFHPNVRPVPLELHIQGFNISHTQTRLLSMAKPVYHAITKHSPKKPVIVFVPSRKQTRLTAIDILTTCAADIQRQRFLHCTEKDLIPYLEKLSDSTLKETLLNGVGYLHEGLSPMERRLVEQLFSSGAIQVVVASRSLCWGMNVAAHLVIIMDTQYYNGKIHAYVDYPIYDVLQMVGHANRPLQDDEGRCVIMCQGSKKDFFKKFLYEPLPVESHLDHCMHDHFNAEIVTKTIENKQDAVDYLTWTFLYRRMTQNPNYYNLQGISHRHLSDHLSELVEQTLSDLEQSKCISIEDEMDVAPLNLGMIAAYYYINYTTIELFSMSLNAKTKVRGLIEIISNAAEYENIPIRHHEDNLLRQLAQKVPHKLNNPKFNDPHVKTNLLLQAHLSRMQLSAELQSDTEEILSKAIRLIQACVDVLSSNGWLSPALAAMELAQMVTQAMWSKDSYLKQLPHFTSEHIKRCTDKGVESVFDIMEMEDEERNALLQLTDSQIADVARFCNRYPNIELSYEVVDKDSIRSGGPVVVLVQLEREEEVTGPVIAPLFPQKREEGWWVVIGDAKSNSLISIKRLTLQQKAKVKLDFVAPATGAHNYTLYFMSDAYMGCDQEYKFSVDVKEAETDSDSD

[8] = biological target: Serine/threonine-protein kinase PAK 4 (Homo sapiens, UniProt O96013)
Serine/threonine-protein kinase PAK 4, sequence (O96013 whole entry): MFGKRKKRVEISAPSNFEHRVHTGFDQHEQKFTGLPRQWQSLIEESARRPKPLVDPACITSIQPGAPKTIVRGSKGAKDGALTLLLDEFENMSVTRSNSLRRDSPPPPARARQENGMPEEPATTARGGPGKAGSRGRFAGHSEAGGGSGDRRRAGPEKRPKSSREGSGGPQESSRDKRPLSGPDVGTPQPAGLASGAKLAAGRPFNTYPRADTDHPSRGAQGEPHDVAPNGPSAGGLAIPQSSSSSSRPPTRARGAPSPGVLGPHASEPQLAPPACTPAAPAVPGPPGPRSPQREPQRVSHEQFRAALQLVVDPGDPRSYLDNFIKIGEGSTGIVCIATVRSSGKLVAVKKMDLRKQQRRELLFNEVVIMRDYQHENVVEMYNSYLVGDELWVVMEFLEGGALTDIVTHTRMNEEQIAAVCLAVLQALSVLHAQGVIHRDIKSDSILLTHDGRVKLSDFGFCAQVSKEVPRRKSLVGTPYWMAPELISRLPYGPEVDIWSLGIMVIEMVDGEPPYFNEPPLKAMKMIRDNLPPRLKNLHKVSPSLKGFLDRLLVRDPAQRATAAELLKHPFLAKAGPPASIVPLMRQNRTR

Rab-like protein 3 = biological target: T4, Rab-like protein 3 (Homo sapiens, UniProt Q5HYI8)
T4 sequence (Q5HYI8 whole entry): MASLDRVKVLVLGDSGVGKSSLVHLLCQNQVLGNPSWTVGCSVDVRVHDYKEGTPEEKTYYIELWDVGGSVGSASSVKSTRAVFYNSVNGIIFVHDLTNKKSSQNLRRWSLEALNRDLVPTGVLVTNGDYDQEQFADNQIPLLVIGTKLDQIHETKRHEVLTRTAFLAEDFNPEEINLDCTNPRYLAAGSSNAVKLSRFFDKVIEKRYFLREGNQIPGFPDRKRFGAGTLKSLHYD

[9] = biological target: Tyrosine-protein kinase Yes (Homo sapiens, UniProt P07947)
Tyrosine-protein kinase Yes, sequence (P07947 whole entry): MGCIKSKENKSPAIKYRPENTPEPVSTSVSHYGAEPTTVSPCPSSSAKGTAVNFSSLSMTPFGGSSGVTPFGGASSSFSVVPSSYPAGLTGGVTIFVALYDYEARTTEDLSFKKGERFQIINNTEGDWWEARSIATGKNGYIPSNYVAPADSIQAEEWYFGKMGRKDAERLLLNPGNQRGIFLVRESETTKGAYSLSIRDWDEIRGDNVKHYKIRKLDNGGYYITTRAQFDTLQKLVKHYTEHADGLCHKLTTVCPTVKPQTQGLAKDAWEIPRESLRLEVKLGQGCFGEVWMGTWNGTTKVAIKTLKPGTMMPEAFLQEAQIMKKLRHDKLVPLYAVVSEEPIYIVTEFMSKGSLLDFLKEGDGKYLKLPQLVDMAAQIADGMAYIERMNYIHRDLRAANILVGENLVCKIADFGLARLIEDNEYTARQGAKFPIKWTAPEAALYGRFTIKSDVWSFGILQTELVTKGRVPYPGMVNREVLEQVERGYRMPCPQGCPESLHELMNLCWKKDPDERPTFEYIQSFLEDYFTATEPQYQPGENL
Note: in the data inactive means no Kd found up to 30 µM.

Kd (Ephrin type-B receptor 6) | Kd [1] | Kd [2] | Kd [3] | Kd [4] | Kd [5] | Kd (Wee1-like protein kinase) | Kd [6] | Kd [7] | Kd [8] | Kd (Rab-like protein 3) | Kd [9] | Compound
> 30 µM (inactive) | > 30 µM (inactive) | > 30 µM (inactive) | > 30 µM (inactive) | > 30 µM (inactive) | > 30 µM (inactive) | 65.2 µM (active) | > 30 µM (inactive) | > 30 µM (inactive) | > 30 µM (inactive) | > 30 µM (inactive) |  | CCN1CCN(Cc2ccc(-c3cc4c(N[C@H](C)c5ccccc5)ncnc4[nH]3)cc2)CC1 [AEE-788]
 | > 30 µM (inactive) | > 30 µM (inactive) | > 30 µM (inactive) | > 30 µM (inactive) | > 30 µM (inactive) | > 30 µM (inactive) | > 30 µM (inactive) | > 30 µM (inactive) | > 30 µM (inactive) | > 30 µM (inactive) | > 30 µM (inactive) | CN1N=C(N)c2cn([C@@H]3O[C@H](COP(=O)(O)O)[C@@H](O)[C@H]3O)c3ncnc1c23 [TRICIRIBINE PHOSPHATE]
> 30 µM (inactive) | > 30 µM (inactive) | > 30 µM (inactive) |  |  | > 30 µM (inactive) | > 30 µM (inactive) | > 30 µM (inactive) | > 30 µM (inactive) |  | > 30 µM (inactive) | > 30 µM (inactive) | OCCn1cc(-c2cnc3nnn(Cc4ccc5ncccc5c4)c3n2)cn1 [PF-04217903]
> 30 µM (inactive) | > 30 µM (inactive) |  |  |  | > 30 µM (inactive) | > 30 µM (inactive) | > 30 µM (inactive) | > 30 µM (inactive) |  | > 30 µM (inactive) | > 30 µM (inactive) | CCc1cnn2c(NCc3ccc[n+]([O-])c3)cc(N3CCCC[C@H]3CCO)nc12 [DINACICLIB]
0.073 µM | 2.14 µM (active) |  |  |  | > 30 µM (inactive) |  |  | > 30 µM (inactive) |  | > 30 µM (inactive) | > 30 µM (inactive) | Cc1nc(N)sc1-c1ccnc(Nc2ccc(N3CCOCC3)cc2)n1 [CYC-116]
 |  | > 30 µM (inactive) |  |  |  |  |  | > 30 µM (inactive) |  | > 30 µM (inactive) |  | CN1CCN(c2ccc3nc(-c4c(N)c5c(F)cccc5[nH]c4=O)[nH]c3c2)CC1 [DOVITINIB]
> 30 µM (inactive) | 0.565 µM (active) | > 30 µM (inactive) |  | > 30 µM (inactive) | > 30 µM (inactive) | > 30 µM (inactive) | > 30 µM (inactive) | > 30 µM (inactive) | > 30 µM (inactive) | > 30 µM (inactive) | > 30 µM (inactive) | COc1cc2nccc(Oc3ccc(NC(=O)NC4CC4)c(Cl)c3)c2cc1C(N)=O [LENVATINIB]
> 30 µM (inactive) |  |  |  |  | > 30 µM (inactive) | > 30 µM (inactive) |  | > 30 µM (inactive) |  |  | 0.441 µM (active) | Cc1cc(Nc2cc(N3CCN(C)CC3)nc(/C=C/c3ccccc3)n2)n[nH]1 [ENMD-2076]
 |  | > 30 µM (inactive) |  |  |  |  |  | > 30 µM (inactive) |  | > 30 µM (inactive) |  | Nc1nc(N)c2nc(-c3cccc(O)c3)c(-c3cccc(O)c3)nc2n1 [TG100-115]
> 30 µM (inactive) |  | > 30 µM (inactive) | > 30 µM (inactive) | > 30 µM (inactive) | > 30 µM (inactive) | > 30 µM (inactive) |  | > 30 µM (inactive) | > 30 µM (inactive) | > 30 µM (inactive) | > 30 µM (inactive) | COc1cc2nccc(Oc3ccc(NC(=O)Nc4cc(C)on4)c(Cl)c3)c2cc1OC [TIVOZANIB]
 |  | > 30 µM (inactive) |  |  |  |  |  | > 30 µM (inactive) |  | > 30 µM (inactive) |  | CCn1c(-c2nonc2N)nc2c(C#CC(C)(C)O)ncc(OC[C@H]3CCCNC3)c21 [GSK-690693]
> 30 µM (inactive) |  | > 30 µM (inactive) | > 30 µM (inactive) | > 30 µM (inactive) | > 30 µM (inactive) | > 30 µM (inactive) | > 30 µM (inactive) |  | > 30 µM (inactive) | > 30 µM (inactive) | > 30 µM (inactive) | Cc1c(F)cc(C(=O)NC2CC2)cc1-c1ccc(C(=O)NCC(C)(C)C)cn1 [LOSMAPIMOD]
> 30 µM (inactive) | > 30 µM (inactive) | > 30 µM (inactive) | > 30 µM (inactive) |  | > 30 µM (inactive) | > 30 µM (inactive) | > 30 µM (inactive) |  | > 30 µM (inactive) | > 30 µM (inactive) | > 30 µM (inactive) | C[C@@H](c1ccc2nccn2c1)n1nnc2ncc(-c3cnn(C)c3)nc21 [SAVOLITINIB]
> 30 µM (inactive) | > 30 µM (inactive) |  | > 30 µM (inactive) | > 30 µM (inactive) | > 30 µM (inactive) | > 30 µM (inactive) | > 30 µM (inactive) | > 30 µM (inactive) | > 30 µM (inactive) | > 30 µM (inactive) | > 30 µM (inactive) | CN(C)C(=O)c1cc2cnc(Nc3ccc(N4CCNCC4)cn3)nc2n1C1CCCC1 [RIBOCICLIB]

Compound | Kd (Ephrin type-B receptor 6) | Kd [1] | Kd [2] | Kd [3] | Kd [4] | Kd [5] | Kd (Wee1-like protein kinase) | Kd [6] | Kd [7] | Kd [8] | Kd (Rab-like protein 3) | Kd [9]
Cc1cn(-c2cc(NC(=O)c3ccc(C)c(Nc4nccc(-c5cccnc5)n4)c3)cc(C(F)(F)F)c2)cn1 [NILOTINIB] |  |  | > 30 µM (inactive) |  |  |  |  |  | > 30 µM (inactive) |  | > 30 µM (inactive) | 
O=C(Nc1cccc(Cl)c1)Nc1ncc(CCNc2ncnc3ccsc23)s1 [SNS-314] |  | > 30 µM (inactive) |  |  |  | > 30 µM (inactive) | > 30 µM (inactive) |  | > 30 µM (inactive) |  | > 30 µM (inactive) | > 30 µM (inactive)
CN1CCC(COc2cnc(-c3cccc(Cn4nc(-c5cccc(C#N)c5)ccc4=O)c3)nc2)CC1 [TEPOTINIB] | > 30 µM (inactive) | > 30 µM (inactive) | > 30 µM (inactive) |  | > 30 µM (inactive) | > 30 µM (inactive) | > 30 µM (inactive) | > 30 µM (inactive) | > 30 µM (inactive) | > 30 µM (inactive) |  | > 30 µM (inactive)
COC(=O)[C@@]1(O)C[C@H]2O[C@]1(C)n1c3ccccc3c3c4c(c5c6ccccc6n2c5c31)C(=O)NC4 [K-252A] | > 30 µM (inactive) | 0.01 µM (active) | > 30 µM (inactive) |  | > 30 µM (inactive) |  | > 30 µM (inactive) | > 30 µM (inactive) | > 30 µM (inactive) | 0.344 µM (active) | > 30 µM (inactive) | > 30 µM (inactive)
